We go through six compounds from US20210145846A1 (Kashiv BioSciences, LLC, priority 2017, published 2021).

Values after ≈ are worked out from the molar mass of the structure shown. Like-named read-outs stand apart in the source and are kept apart here.

A short description of data set [1]: Storage stability of Formulations 1-3 (dl-α-tocopherol assay, total impurities). It is filed as physicochemical. The note with it: various storage conditions. As for the experimental part:
Three-week and four-week storage stabilities, as per Table 15, of Formulations 1-3 were determined under standard storage conditions of 5° C., storage at room temperature, and storage at 40° C./75% RH. The total impurities were less than 1% at the end of three- or four-week storage at 5° C., RT, and 40° C./75% RH.

A short description of data set [2]: Viscosities of the components in the prototype formulations. It is filed as physicochemical. The note with it: neat excipient. The text has this: Once injected into the muscle tissue, it forms a depot and the formulation components begin to diffuse into the surrounding tissue and the circulatory system. The rate of diffusion for each component depends on the solubility, permeability, and viscosity of the formulation in the local environment of the depot. Notwithstanding the complexity of the in vivo situation, and without wishing to be held to a particular theory, it is expected that the viscosity of the formulation is a critical factor that affects the diffusion of the formulation components from the site of injection, including from the point of view of ease of injection, diffusion into the muscle tissue, and rate of absorption.

Data set [3] concerns HR-positive metastatic breast cancer. The note with it: cited from earlier work.
The conditions of data set [4]: cited from earlier work.

On to `Cc1c(C)c2c(c(C)c1O)CCC(C)(CCCC(C)CCCC(C)CCCC(C)C)O2` (racemic) [dl-α-Tocopherol, dl-α-tocopherol], for which the “Stability of dl-α-Tocopherol in the formulations” value in data set [1] is “unstable and susceptible to degradation”.
For the compound `OCc1ccccc1` [Benzyl alcohol], the “Viscosity (cp)” value in data set [2] is on record as 5.40 cp.
For the compound `CCO` [Ethyl alcohol (Ethanol), Ethanol], the “Viscosity (cp)” value in data set [2] is 1.04 cp.
In the case of `C[C@]12CC[C@@H]3c4ccc(O)cc4C[C@@H](CCCCCCCCC[S+]([O-])CCCC(F)(F)C(F)(F)F)[C@H]3[C@@H]1CC[C@@H]2O` (stereo partly drawn) [Fulvestrant, 7α-[9-[(4,4,5,5,5-pentafluoropentyl)sulfinyl]nonyl]-estra-1,3,5(10)-triene-3,17β-diol], the Median overall survival in data set [3] (fulvestrant 250 mg IM) was 22.3 months; in data set [3] (fulvestrant 500 mg IM), 26.4 months. Moreover, the “Progression-free survival (PFS)” value in data set [3] (fulvestrant 500 mg compared with 250 mg) is “statistically significant increase”. Besides, the “Solubility (mg/ml) at 25° C.” value in data set [4] (in Benzyl alcohol, 25° C.) was more than 200 mg/mL; in data set [4] (in Benzyl benzoate, 25° C.) it was 6.15 mg/mL (≈ 10.1 mM); in data set [4] (in Ethanol, 25° C.) it was more than 200 mg/mL; in data set [4] (in Ethyl oleate, 25° C.), 1.25 mg/mL (≈ 2.06 mM); in data set [4] (in Isopropyl myristate, 25° C.) it was 0.80 mg/mL (≈ 1.32 mM); in data set [4] (in Migloyl 810, 25° C.) it was 3.06 mg/mL (≈ 5.04 mM). In addition, the “Solubility (mg/ml) at 25° C.” value in data set [4] (in Migloyl 812, 25° C.) was 2.72 mg/mL (≈ 4.48 mM); in data set [4] (in Polyethylene glycol (PEG 400), 25° C.) it was 22.5 mg/mL (≈ 37.1 mM); in data set [4] (in Propylene glycol, 25° C.), 4.0 mg/mL (≈ 6.59 mM); in data set [4] (in SPAN ® 85, 25° C.) it was 3.79 mg/mL (≈ 6.25 mM); in data set [4] (in Sesame oil, 25° C.), 0.58 mg/mL (≈ 0.956 mM).
As to `CC(O)CO` (stereo not shown) [Propylene glycol], the “Viscosity (cp)” value in data set [2] came to 42.00 cp.
Same read-out and setting: the result for sorbitan monolaurate [SPAN ® 20] reads 1000-2000 cp.
